Source: publication doi:10.1101/2024.08.13.607785v1 (biorxiv, 2024)
Read-outs that look alike come from different tables or passages of the source.

Legend:
Test in all cases: biochemical
Parameters in all cases: species or system human cell line lysate
[1] = molecular target: Serine/threonine-protein kinase N3 ; PKN3 ; Q6P5Z2 (Homo sapiens, UniProt Q6P5Z2)
[2] = molecular target: Mitogen-activated protein kinase kinase kinase kinase 2 ; MAP4K2 ; Q12851 (Homo sapiens, UniProt Q12851)
[3] = molecular target: MAP/microtubule affinity-regulating kinase 3 ; MARK3 ; P27448 (Homo sapiens, UniProt P27448)
[4] = molecular target: Aurora kinase A ; AURKA ; O14965 (Homo sapiens, UniProt O14965)
[5] = molecular target: Isoform 2 of Tyrosine-protein kinase Fyn ; FYN ; P06241-2 (Homo sapiens, UniProt P06241)
[6] = molecular target: Isoform 4 of Casein kinase I isoform gamma-3 ; CSNK1G3 ; Q9Y6M4-4 (Homo sapiens, UniProt Q9Y6M4)
[7] = molecular target: Serine/threonine-protein kinase Chk2 ; CHEK2 ; O96017 (Homo sapiens, UniProt O96017)
[8] = molecular target: Serine/threonine-protein kinase BRSK1 ; BRSK1 ; Q8TDC3 (Homo sapiens, UniProt Q8TDC3)
[9] = molecular target: Serine/threonine-protein kinase D3 ; PRKD3 ; O94806 (Homo sapiens, UniProt O94806)
[10] = molecular target: Serine/threonine-protein kinase 10 ; STK10 ; O94804 (Homo sapiens, UniProt O94804)
[11] = molecular target: Atypical kinase COQ8A, mitochondrial ; COQ8A ; Q8NI60 (Homo sapiens, UniProt Q8NI60)
[12] = molecular target: Phosphatidylinositol 3-kinase catalytic subunit type 3 ; PIK3C3 ; Q8NEB9 (Homo sapiens, UniProt Q8NEB9)
[13] = molecular target: Serine/threonine-protein kinase pim-1 ; PIM1 ; P11309 (Homo sapiens, UniProt P11309)
[14] = molecular target: Dual specificity tyrosine-phosphorylation-regulated kinase 1A ; DYRK1A ; Q13627 (Homo sapiens, UniProt Q13627)
[15] = molecular target: Wee1-like protein kinase ; WEE1 ; P30291 (Homo sapiens, UniProt P30291)
[16] = molecular target: Dual specificity protein kinase TTK ; TTK ; P33981 (Homo sapiens, UniProt P33981)
[17] = molecular target: Casein kinase II subunit alpha' ; CSNK2A2 ; P19784 (Homo sapiens, UniProt P19784)
[18] = molecular target: Serine/threonine-protein kinase PLK4 ; PLK4 ; O00444 (Homo sapiens, UniProt O00444)
[19] = molecular target: 5'-AMP-activated protein kinase catalytic subunit alpha-2 ; PRKAA2 ; P54646 (Homo sapiens, UniProt P54646)
[20] = molecular target: Ribosomal protein S6 kinase alpha-4 ; RPS6KA4 ; O75676 (Homo sapiens, UniProt O75676)
[21] = molecular target: Isoform Mxi2 of Mitogen-activated protein kinase 14 ; MAPK14 ; Q16539-3 (Homo sapiens, UniProt Q16539)
[22] = molecular target: 3-phosphoinositide-dependent protein kinase 1 ; PDPK1 ; O15530 (Homo sapiens, UniProt O15530)
[23] = molecular target: Serine/threonine-protein kinase SIK3 ; SIK3 ; Q9Y2K2 (Homo sapiens, UniProt Q9Y2K2)
[24] = read-out: BAY-1143572 (10 µM) / %Intensity relative to DMSO
[25] = read-out: BAY-1251152 (10 µM) / %Intensity relative to DMSO

Casein kinase II subunit alpha' ; CSNK2A2 ; P19784, sequence (P19784 whole entry, one chain of several): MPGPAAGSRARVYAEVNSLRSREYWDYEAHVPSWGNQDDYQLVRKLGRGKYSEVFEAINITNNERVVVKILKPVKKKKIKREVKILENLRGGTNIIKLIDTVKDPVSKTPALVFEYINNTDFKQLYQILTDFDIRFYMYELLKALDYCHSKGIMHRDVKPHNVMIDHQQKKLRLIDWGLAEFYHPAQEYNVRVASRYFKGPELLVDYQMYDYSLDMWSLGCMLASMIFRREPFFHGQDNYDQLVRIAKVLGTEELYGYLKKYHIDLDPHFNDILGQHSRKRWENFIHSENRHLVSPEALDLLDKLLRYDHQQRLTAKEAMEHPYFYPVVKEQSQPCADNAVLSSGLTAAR
Serine/threonine-protein kinase D3 ; PRKD3 ; O94806, sequence (O94806 whole entry, one chain of several): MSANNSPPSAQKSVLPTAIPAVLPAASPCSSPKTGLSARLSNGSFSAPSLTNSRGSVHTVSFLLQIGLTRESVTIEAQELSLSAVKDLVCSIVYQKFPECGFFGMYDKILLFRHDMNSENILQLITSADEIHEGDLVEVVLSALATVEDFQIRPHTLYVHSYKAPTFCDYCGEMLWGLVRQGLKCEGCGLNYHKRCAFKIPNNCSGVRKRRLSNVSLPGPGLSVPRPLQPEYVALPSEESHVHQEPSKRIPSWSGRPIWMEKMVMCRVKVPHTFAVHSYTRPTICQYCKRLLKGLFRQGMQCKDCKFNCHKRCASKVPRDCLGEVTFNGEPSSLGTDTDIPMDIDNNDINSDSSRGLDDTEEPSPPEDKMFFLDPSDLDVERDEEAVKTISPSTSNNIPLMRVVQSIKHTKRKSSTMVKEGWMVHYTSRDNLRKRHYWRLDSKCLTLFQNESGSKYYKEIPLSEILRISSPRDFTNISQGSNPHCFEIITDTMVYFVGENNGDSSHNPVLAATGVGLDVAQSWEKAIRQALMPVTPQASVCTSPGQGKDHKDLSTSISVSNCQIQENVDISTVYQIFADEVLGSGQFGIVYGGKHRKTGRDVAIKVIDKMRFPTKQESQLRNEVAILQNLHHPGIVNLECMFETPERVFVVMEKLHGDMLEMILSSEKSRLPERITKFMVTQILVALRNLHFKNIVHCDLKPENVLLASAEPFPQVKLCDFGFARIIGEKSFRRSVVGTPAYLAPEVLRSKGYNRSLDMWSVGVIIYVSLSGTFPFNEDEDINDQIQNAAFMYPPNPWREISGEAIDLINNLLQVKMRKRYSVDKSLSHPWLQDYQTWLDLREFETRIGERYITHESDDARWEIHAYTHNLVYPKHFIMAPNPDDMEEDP
Serine/threonine-protein kinase PLK4 ; PLK4 ; O00444, sequence (O00444 whole entry, one chain of several): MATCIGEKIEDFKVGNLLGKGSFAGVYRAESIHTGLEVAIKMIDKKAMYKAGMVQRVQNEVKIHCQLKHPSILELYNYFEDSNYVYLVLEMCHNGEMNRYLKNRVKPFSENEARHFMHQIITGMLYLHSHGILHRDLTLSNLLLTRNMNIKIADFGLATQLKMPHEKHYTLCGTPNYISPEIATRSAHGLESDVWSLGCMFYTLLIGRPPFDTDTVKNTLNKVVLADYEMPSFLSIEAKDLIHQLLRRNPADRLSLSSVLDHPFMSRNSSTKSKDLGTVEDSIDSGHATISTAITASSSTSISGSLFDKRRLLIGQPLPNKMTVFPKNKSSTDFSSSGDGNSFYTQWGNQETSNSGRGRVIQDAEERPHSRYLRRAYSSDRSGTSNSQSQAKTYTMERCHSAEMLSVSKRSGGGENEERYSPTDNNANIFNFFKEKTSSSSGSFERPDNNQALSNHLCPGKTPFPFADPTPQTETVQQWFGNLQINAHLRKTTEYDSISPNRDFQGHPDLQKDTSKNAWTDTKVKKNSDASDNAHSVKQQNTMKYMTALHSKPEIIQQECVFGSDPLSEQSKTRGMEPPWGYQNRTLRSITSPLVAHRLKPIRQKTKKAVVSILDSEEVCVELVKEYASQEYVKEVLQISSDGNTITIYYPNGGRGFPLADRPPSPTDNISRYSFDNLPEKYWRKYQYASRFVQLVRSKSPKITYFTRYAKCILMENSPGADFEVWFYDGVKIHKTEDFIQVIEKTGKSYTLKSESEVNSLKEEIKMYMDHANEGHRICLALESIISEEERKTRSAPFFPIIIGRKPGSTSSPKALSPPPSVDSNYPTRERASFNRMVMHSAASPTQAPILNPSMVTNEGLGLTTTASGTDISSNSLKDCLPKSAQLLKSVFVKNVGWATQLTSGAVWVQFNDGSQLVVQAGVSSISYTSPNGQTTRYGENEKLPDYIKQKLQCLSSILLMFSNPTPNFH
Serine/threonine-protein kinase Chk2 ; CHEK2 ; O96017, sequence (O96017 whole entry, one chain of several): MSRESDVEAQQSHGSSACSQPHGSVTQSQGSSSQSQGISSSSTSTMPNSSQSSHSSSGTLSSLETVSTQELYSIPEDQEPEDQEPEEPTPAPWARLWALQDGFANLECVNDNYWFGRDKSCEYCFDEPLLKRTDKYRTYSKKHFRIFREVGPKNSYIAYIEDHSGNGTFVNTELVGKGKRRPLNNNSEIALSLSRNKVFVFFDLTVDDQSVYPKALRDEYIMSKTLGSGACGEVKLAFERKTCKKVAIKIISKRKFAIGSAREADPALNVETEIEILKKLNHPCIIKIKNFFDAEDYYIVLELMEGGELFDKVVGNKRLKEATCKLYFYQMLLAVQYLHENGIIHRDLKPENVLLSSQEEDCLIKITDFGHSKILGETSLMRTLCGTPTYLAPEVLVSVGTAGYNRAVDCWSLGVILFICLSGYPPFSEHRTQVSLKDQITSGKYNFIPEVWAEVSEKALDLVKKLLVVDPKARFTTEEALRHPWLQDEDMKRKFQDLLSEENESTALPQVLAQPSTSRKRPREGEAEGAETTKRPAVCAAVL
Serine/threonine-protein kinase N3 ; PKN3 ; Q6P5Z2, sequence (Q6P5Z2 whole entry, one chain of several): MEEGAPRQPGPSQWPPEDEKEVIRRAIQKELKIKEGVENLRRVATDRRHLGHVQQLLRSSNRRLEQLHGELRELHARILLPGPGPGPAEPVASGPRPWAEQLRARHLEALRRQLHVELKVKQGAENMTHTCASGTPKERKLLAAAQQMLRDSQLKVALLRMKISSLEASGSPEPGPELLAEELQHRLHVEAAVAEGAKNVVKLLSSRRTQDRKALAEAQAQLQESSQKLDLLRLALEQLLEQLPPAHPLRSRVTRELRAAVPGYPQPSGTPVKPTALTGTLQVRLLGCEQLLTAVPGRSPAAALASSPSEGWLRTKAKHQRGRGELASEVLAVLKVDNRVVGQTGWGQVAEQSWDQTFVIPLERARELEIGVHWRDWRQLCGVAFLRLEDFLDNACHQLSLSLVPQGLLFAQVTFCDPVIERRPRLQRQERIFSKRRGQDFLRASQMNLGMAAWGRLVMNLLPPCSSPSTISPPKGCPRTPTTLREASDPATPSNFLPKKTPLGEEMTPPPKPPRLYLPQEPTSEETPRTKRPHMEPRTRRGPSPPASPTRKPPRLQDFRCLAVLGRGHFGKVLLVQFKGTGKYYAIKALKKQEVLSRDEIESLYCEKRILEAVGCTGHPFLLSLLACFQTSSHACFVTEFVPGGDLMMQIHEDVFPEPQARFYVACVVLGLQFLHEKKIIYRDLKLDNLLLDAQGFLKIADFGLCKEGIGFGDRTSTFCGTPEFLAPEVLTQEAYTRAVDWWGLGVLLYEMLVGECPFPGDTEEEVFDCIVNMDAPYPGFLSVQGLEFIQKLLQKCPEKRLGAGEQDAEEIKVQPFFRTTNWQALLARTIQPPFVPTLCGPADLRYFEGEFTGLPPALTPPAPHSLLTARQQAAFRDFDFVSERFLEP
Mitogen-activated protein kinase kinase kinase kinase 2 ; MAP4K2 ; Q12851, sequence (Q12851 whole entry): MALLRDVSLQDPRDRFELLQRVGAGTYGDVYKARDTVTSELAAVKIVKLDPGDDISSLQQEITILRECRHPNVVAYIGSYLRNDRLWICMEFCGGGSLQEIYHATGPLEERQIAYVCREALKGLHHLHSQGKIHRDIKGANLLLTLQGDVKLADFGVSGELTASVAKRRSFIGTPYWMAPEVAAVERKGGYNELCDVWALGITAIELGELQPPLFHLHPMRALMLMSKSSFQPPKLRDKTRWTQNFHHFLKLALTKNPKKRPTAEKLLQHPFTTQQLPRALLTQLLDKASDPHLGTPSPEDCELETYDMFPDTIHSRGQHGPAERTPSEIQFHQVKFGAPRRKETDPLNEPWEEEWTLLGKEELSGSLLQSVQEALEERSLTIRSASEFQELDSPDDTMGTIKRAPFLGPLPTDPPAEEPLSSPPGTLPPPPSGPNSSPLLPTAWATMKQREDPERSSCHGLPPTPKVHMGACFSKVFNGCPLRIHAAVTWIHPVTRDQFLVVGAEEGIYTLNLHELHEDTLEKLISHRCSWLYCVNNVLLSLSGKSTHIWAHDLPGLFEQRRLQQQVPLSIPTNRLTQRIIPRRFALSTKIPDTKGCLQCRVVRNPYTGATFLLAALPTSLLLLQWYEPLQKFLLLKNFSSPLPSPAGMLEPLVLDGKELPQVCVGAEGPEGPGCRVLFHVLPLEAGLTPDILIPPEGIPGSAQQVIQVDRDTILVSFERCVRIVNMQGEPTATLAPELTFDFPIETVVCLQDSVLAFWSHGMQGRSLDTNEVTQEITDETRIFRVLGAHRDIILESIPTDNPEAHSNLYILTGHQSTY
5'-AMP-activated protein kinase catalytic subunit alpha-2 ; PRKAA2 ; P54646, sequence (P54646 whole entry, one chain of several): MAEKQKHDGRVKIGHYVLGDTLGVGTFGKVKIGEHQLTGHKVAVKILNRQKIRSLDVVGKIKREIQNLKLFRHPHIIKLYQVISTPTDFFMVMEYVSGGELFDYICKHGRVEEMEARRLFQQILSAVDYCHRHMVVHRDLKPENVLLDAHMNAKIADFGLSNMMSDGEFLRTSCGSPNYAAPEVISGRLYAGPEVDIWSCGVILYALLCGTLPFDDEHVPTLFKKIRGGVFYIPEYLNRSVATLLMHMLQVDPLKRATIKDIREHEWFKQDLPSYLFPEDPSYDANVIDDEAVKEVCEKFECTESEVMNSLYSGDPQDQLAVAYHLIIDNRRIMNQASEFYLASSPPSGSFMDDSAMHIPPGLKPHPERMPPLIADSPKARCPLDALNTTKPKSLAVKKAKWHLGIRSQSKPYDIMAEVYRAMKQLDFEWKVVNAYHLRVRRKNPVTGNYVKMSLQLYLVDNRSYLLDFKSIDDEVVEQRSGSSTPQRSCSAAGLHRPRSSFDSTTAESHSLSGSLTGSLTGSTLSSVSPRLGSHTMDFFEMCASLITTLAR

COc1cc(F)ccc1-c1ncnc(Nc2cccc(C[S@](C)(=N)=O)c2)n1 [BAY-1143572]
remaining activity at 10 µM [1, 24]: 121% | remaining activity at 10 µM [2, 24]: 106% | remaining activity at 10 µM [3, 24]: 106% | remaining activity at 10 µM [4, 24]: 112% | remaining activity at 10 µM [5, 24]: 106% | remaining activity at 10 µM [6, 24]: 113% | remaining activity at 10 µM [7, 24]: 116% | remaining activity at 10 µM [8, 24]: 95.3% | remaining activity at 10 µM [9, 24]: 108% | remaining activity at 10 µM [10, 24]: 91.3% | remaining activity at 10 µM [11, 24]: 106% | remaining activity at 10 µM [12, 24]: 119% | remaining activity at 10 µM [13, 24]: 124% | remaining activity at 10 µM [14, 24]: 76.3% | remaining activity at 10 µM [15, 24]: 101% | remaining activity at 10 µM [16, 24]: 86.7% | remaining activity at 10 µM [17, 24]: 114% | remaining activity at 10 µM [18, 24]: 104% | remaining activity at 10 µM [19, 24]: 115% | remaining activity at 10 µM [20, 24]: 119% | remaining activity at 10 µM [21, 24]: 128% | remaining activity at 10 µM [22, 24]: 114% | remaining activity at 10 µM [23, 24]: 109%

COc1cc(F)ccc1-c1cc(Nc2cc(CS(C)(=N)=O)ccn2)ncc1F (stereo not shown) [BAY-1251152]
remaining activity at 10 µM [1, 25]: 114% | remaining activity at 10 µM [2, 25]: 73.8% | remaining activity at 10 µM [3, 25]: 100% | remaining activity at 10 µM [4, 25]: 98.6% | remaining activity at 10 µM [5, 25]: 108% | remaining activity at 10 µM [6, 25]: 110% | remaining activity at 10 µM [7, 25]: 106% | remaining activity at 10 µM [8, 25]: 96% | remaining activity at 10 µM [9, 25]: 102% | remaining activity at 10 µM [10, 25]: 74.5% | remaining activity at 10 µM [11, 25]: 113% | remaining activity at 10 µM [12, 25]: 124% | remaining activity at 10 µM [13, 25]: 110% | remaining activity at 10 µM [14, 25]: 60.2% | remaining activity at 10 µM [15, 25]: 102% | remaining activity at 10 µM [16, 25]: 82.1% | remaining activity at 10 µM [17, 25]: 98.2% | remaining activity at 10 µM [18, 25]: 109% | remaining activity at 10 µM [19, 25]: 113% | remaining activity at 10 µM [20, 25]: 104% | remaining activity at 10 µM [21, 25]: 119% | remaining activity at 10 µM [22, 25]: 104% | remaining activity at 10 µM [23, 25]: 106%
